Assay: xn = mol fraction of the nth substance listed, in the solute-free solvent

CC1(C)SC2C(NC(=O)C(NC(=O)N3CCNC3=O)c3ccccc3)C(=O)N2C1C(=O)O (configuration not stated) + CO + CC(C)O
solubility (g/100 g solution)
Details	278.15 K	283.15 K	288.15 K	293.15 K	298.15 K	303.15 K	308.15 K	313.15 K	318.15 K	323.15 K
x2 = 0.1	0.0982	0.114	0.133	0.163	0.195	0.225	0.276	0.333	0.411	0.503
x2 = 0.199	0.115	0.133	0.155	0.196	0.228	0.289	0.344	0.425	0.516	0.639
x2 = 0.3	0.139	0.156	0.188	0.229	0.277	0.331	0.4	0.501	0.611	0.735
x2 = 0.4	0.156	0.173	0.202	0.247	0.299	0.361	0.455	0.551	0.673	0.832
x2 = 0.497	0.165	0.186	0.227	0.266	0.323	0.394	0.504	0.618	0.749	0.926
x2 = 0.6	0.186	0.22	0.255	0.298	0.374	0.448	0.55	0.678	0.811	0.994
x2 = 0.7	0.215	0.243	0.295	0.353	0.42	0.494	0.625	0.742	0.889	1.13
x2 = 0.8	0.251	0.297	0.35	0.43	0.49	0.584	0.732	0.868	1.09	1.34
x2 = 0.9	0.297	0.368	0.427	0.507	0.602	0.722	0.92	1.14	1.37	1.68

O=C(CC(=O)c1ccccc1)c1ccccc1 + CCO + O
solubility (g/100 g solution)
Details	278.15 K	283.15 K	288.15 K	293.15 K	298.15 K	303.15 K	308.15 K	313.15 K	318.15 K
x2 = 0.2	0.0116	0.0406	0.0595	0.069	0.0786	0.0881	0.0946	0.177	0.129
x2 = 0.4	0.2	0.505	0.754	0.88	1.09	1.28	1.97	2.5	2.96
x2 = 0.6	0.577	0.706	0.904	1.13	1.47	2	2.12	2.61	3.89
x2 = 0.8	1.25	2.11	1.75	2.39	3.08	3.46	4.26	6.03	8.9

O=c1[nH]cc(F)c(=O)[nH]1 + CN(C)C=O + C1CCOC1
solubility (g/100 g solution)
Details	283.15 K	288.15 K	293.15 K	298.15 K	303.15 K	308.15 K	313.15 K	318.15 K	323.15 K
x2 = 0.1978	0.137	0.174	0.209	0.264	0.33	0.423	0.551	0.66	0.816
x2 = 0.3967	0.188	0.24	0.293	0.37	0.468	0.581	0.735	0.883	1.07
x2 = 0.5967	0.283	0.352	0.434	0.533	0.653	0.814	1.01	1.24	1.51
x2 = 0.7978	0.461	0.564	0.685	0.829	0.996	1.23	1.51	1.84	2.23

Source: the CheMixHub drug solubility set
